Counter-ions that a name gives are not always drawn.

One series deals with rat isolated left atrium. In words: Inhibition of the contraction with veratrine of the rat isolated left atrium. In kind it is cell-based. Particulars: 10^−7M, veratrine-induced contraction. The procedure: The inhibition of the contraction with veratrine of the rat isolated left atrium was carried out according to the technique of Le Grand et al. (Naunyn-Schmiedebergs Arch. Pharmacol., (1993) 348, p. 184-190). The results are shown in Table I below, where the percentages of the inhibition are given at a concentration of 10^−7M.

Series [1] concerns guinea pig perfused isolated heart. Nature of the series: Antiischemic activity, global ischemia in the guinea pig perfused isolated heart. In kind it is cell-based. Particulars: Cavia porcellus, 10^−6M, ischemic contraction vs vehicle group. The procedure:
The antiischemic activity was measured with regard to the test of the guinea pig perfused isolated heart according to the technique of Le Grand B. et al. (Am. J. Physiol., 269, H533-H540, 1995). The guinea pig hearts are removed, perfused with a modified Krebs solution and the compound to be studied, in solution in water or in a 99/01 water/DMSO mixture (according to solubility), is added after 20 minutes. […], global ischemia is brought about by halting coronary perfusion for 50 min, followed by reperfusion for 1 h. The inhibition of ischemic contraction in the presence of the compound studied is measured with respect to that of the vehicle group. The results are shown in Table II as nonlimiting examples at a concentration of 10^−6M.

Another series relates to anesthetized rabbit. Nature of the series: Ischemia-reperfusion in the anesthetized rabbit, oral. The class given is in vivo. The source says:
The compounds of the present invention are also active orally in the test of ischemia-reperfusion in the anesthetized rabbit according to the method of Verscheure et al., (J. Cardiovasc. Pharmacol., 1995, 25, 126-133).

Consider `CS/C(=N\c1ccccc1)N(C)C1CCN(CCCCOc2ccc(C)c(C)c2)CC1.O=C(O)/C=C/C(=O)O`, for which the melting point was 138 to 139 °C.

Molecule `COc1cc(Cl)ccc1OCCCCN1CCC(N(C)/C(=N/c2ccccc2)SC)CC1.O=C(O)/C=C/C(=O)O` displayed a melting point of 106 to 107 °C.

The molecule `CS/C(=N\c1ccccc1F)N(C)C1CCN(CCCCOc2ccc(F)c(F)c2)CC1.O=C(O)/C=C/C(=O)O` returned a melting point of 148 °C.

For `CS/C(=N\c1ccc(Cl)cc1)N(C)C1CCN(CCCCOc2ccc(F)c(F)c2)CC1.O=C(O)/C=C/C(=O)O`, the melting point stood at 130 °C.

With `CS/C(=N\c1ccc(C)cc1)N(C)C1CCN(CCCCOc2ccc(F)c(F)c2)CC1.O=C(O)/C=C/C(=O)O`, the melting point is 141 °C.

As for `COc1ccc(/N=C(\SC)N(C)C2CCN(CCCCOc3ccc(F)c(F)c3)CC2)cc1.O=C(O)/C=C/C(=O)O`, the melting point was 130 °C.

`CS/C(=N\c1c(C)cccc1C)N(C)C1CCN(CCCCOc2ccc(F)c(F)c2)CC1.O=C(O)/C=C/C(=O)O` came in with a melting point of 129 °C.

Molecule `CS/C(=N\c1c(C(C)C)cccc1C(C)C)N(C)C1CCN(CCCCOc2ccc(F)c(F)c2)CC1.O=C(O)/C=C/C(=O)O` returned a melting point of 194 °C.

`CS/C(=N\c1cccc(F)c1)N(C)C1CCN(CCCCOc2ccc(F)c(F)c2)CC1.O=C(O)/C=C/C(=O)O` gave a melting point of 133 °C.

With `CCS/C(=N\c1ccccc1)N(C)C1CCN(CCCCOc2ccc(F)c(F)c2)CC1.O=C(O)/C=C/C(=O)O`, the melting point lay within 151 to 152 °C.

As to `CS/C(=N\c1ccc([N+](=O)[O-])cc1)N(C)C1CCN(CCCCOc2ccc(F)c(F)c2)CC1.O=C(O)/C=C/C(=O)O`, the melting point worked out at 132 °C.

`CS/C(=N\c1ccccc1)N(C)C1CCN(CCCOCCc2ccc(F)cc2)CC1.O=C(O)/C=C/C(=O)O` came in with a melting point of 110 to 111 °C.

On to `CS/C(=N\c1ccccc1)N(CC(C)C)C1CCN(CCCCOc2ccc(F)c(F)c2)CC1.O=C(O)/C=C/C(=O)O`, for which the melting point fell in the range of 131 to 132 °C.

Regarding `CS/C(=N\c1ccccc1)N(C)C1CCN(CCCCCOc2ccc(F)c(F)c2)CC1.O=C(O)/C=C/C(=O)O`, the melting point was 129 to 130 °C.

The molecule `CS/C(=N\c1ccccc1)N(C)C1CCN(CCCOc2ccc(F)c(F)c2)CC1.O=C(O)/C=C/C(=O)O` displayed a melting point of 106 to 107 °C.

With `CS/C(=N\c1ccccc1)N(C)C1CCN(CCCCOc2ccc(F)cc2)CC1.O=C(O)/C=C/C(=O)O`, the melting point lay within 133 to 134 °C.

In the case of `CS/C(=N\c1ccccc1)N(C)C1CCN(CCOc2ccc(F)cc2)CC1.O=C(O)/C=C/C(=O)O`, the melting point is 120 °C.

On to `COc1ccc(OCCCCN2CCC(N(C)/C(=N/c3ccccc3)SC)CC2)cc1.O=C(O)/C=C/C(=O)O`, for which the melting point amounted to 120 °C.

For the molecule `CS/C(=N\c1ccccc1)N(C)C1CCN(CCCCOc2ccc(F)c(F)c2)CC1.O=C(O)/C=C/C(=O)O` [Example 1, 1,2-Dimethyl-3-phenyl-1-[1-[4-(3,4-difluorophenoxy)butyl]piperidin-4-yl]isothiourea hydrogen fumarate], the melting point is 151 to 152 °C. In the series with rat isolated left atrium, this molecule came in with an inhibition at 0.1 µM of 28%. Further, at 1 µM the inhibition in series [1] was 69%. In the series on anesthetized rabbit (0.63 mg/kg p.o.), the “% arterial pressure variation” value is −3%, the “% heart rate variation” value was found to be 5%, the “% inhibition with regard to ST-segment elevation” value (“% inhibition with regard” below) was 58% and the “Number of animals exhibiting reperfusion arrhythmias” value (“Number” below) is 1/5.

`CCN(/C(=N/c1ccccc1)SC)C1CCN(CCCCOc2ccc(F)c(F)c2)CC1.O=C(O)/C=C/C(=O)O` [Example 3, 1-Ethyl-1-[1-[4-(3,4-difluorophenoxy)butyl]piperidin-4-yl]-2-methyl-3-phenylisothiourea hydrogen fumarate] came in with a melting point of 120 to 121 °C. This molecule also displayed an inhibition at 0.1 µM with rat isolated left atrium of 32%.

As for `CS/C(=N\c1ccc(F)cc1)N(C)C1CCN(CCCCOc2ccc(F)c(F)c2)CC1.O=C(O)/C=C/C(=O)O` [Example 13, 1,2-Dimethyl-1-[1-[4-(3,4-difluorophenoxy)butyl]piperidin-4-yl]-3-(4-fluorophenyl)isothiourea hydrogen fumarate], the melting point is 125 °C. In addition, at 0.1 µM the inhibition in the series with rat isolated left atrium was 34%.

In the series on rat isolated left atrium, `CS/C(=N\c1c(F)cccc1F)N(C)C1CCN(CCCCOc2ccc(F)c(F)c2)CC1` [Example 21, 1,2-Dimethyl-1-[1-[4-(3,4-difluorophenoxy)butyl]piperidin-4-yl]-3-(2,6-difluorophenyl)isothiourea hydrogen fumarate] came in with an inhibition at 0.1 µM of 31%. In series [1], this molecule yielded an inhibition at 1 µM of 53%.

Turning to `CN(C1=Nc2ccccc2CS1)C1CCN(CCCCOc2ccc(F)c(F)c2)CC1` [PF Control, N-[1-[4-(3,4-Difluorophenoxy)butyl]piperidin-4-yl]-N-methyl-4H-3,1-benzothiazin-2-amine], in the series with rat isolated left atrium, at 0.1 µM the inhibition was 25%. Besides, the inhibition at 1 µM in series [1] amounted to 48%. Further, in the series on anesthetized rabbit (0.63 mg/kg p.o.), the “% arterial pressure variation” value was 9%, the “% heart rate variation” value came out at 9%, the “% inhibition with regard” value turned out to be 33% and the “Number” value was 1/5.

With `CN(c1nc2ccccc2s1)C1CCN(CCCCOc2ccc(F)cc2)CC1` [R 56865, N-(1-(4-(4-Fluorophenoxy)butyl)piperidin-4-yl)-N-methyl-2-benzothiazolamine], at 0.1 µM the inhibition with rat isolated left atrium was 33%. For the same molecule, in the series on anesthetized rabbit (2.5 mg/kg p.o.), the “% arterial pressure variation” value was 27%, the “% heart rate variation” value is recorded as 0%, the “% inhibition with regard” value was determined as 0% and the “Number” value is recorded as 2/5.

For orientation: melting point means the temperature, or range, at which the solid turns liquid. One may read the inhibition as the relative decrease from the control value, in per cent.

The values are drawn from patent US6583159B1, “Substitute 1-(piperidin-4-yl)-3-(aryl)-isothioureas, their preparation and therapeutic use” (Pierre Fabre Medicament, priority 1999, dated 2003).
